The values below are quoted from earlier work in US7517878B2, “Heteroarylaminopyrazole derivatives useful for the treatment of diabetes” (Bayer Pharamceuticals Corporation, priority 2004, dated 2009).

By EC50 is commonly meant the concentration that produces a half-maximal response.

This series relates to INS-1 cells. To be noted: INS-1 cells maintained in the presence of beta-mercaptoethanol; Hohmeier, et al., Diabetes 49:424, 2002; read-out: EC50 of insulin secretion in response to glucose.

With `O=C[C@H](O)[C@@H](O)[C@H](O)[C@H](O)CO` [glucose], the EC50 is 6 mM.
